This is an account of results in patent publication US4554353A, “2,5-Pyrrolidinedione derivatives useful as antiarrhythmic agents” (G. D. Searle & Co., priority 1984, dated 1985).

The structures appear in SMILES notation. pIC50: −log10 of the molar value.

Test [1] deals with Ventricular arrhythmia. The test can be described thus: Harris Dog Efficacy (ventricular arrhythmia induced by 2-stage coronary artery ligation in unanesthetized dogs). It is filed as in vivo. As to conditions: for minimal effective dose: Canis lupus familiaris, 10 min, intravenous, unanesthetized dogs, at least 25% reduction in ectopic beats for at least 10 minutes in half or more of dogs; for activity in the dog ventricular arrhythmia test: active = at least 25% reduction in ectopic beats for at least 10 minutes in half or more of dogs. The procedure:
Ventricular arrhythmia is induced by a 2-stage ligation of the anterior descending branch of the left coronary artery in each of two or more unanesthetized dogs. The test compound is administered intravenously at 5 mpk doses to a maximum dose of 20 mpk.

For test [2], the target named is Muscarinic Receptor. Put plainly: Muscarinic Receptor Binding Assay (3H-QNB displacement, rat brain homogenate). As to conditions: inhibition of specific 3H-QNB binding by 50%, 0.15 nM 3H-QNB, pH 7.4, 25° C., 1 hour.

Broadly, the minimal effective dose is the smallest amount tested that counted as effective. Read a high minimal effective dose as weaker potency. The pIC50 is −log10 of the IC50, conventionally taken in molar units. Read a high pIC50 as a low IC50. `CC(C)N(CCC1(c2ccccc2)CC(=O)NC1=O)C(C)C` (stereo not shown) [Example 2, 3-[2-[bis(1-methylethyl)amino]ethyl]-3-phenyl-2,5-pyrrolidinedione] returned a minimal effective dose in test [1] of 10 mg/kg. Also, in test [2], the pIC50 is 6.85.

Molecule `CC(C)N(CCC1(c2ccccc2Cl)CC(=O)NC1=O)C(C)C` (stereo not shown) [Example 4, 3-[2-[bis(1-methylethyl)-amino]ethyl]-3-(2-chlorophenyl)-2,5-pyrrolidinedione] came in with a minimal effective dose in test [1] of 2.8 mg/kg. Moreover, the pIC50 in test [2] is 6.52.

As for `CC1CCCC(C)N1CCC1(c2ccccc2Cl)CC(=O)NC1=O` (stereo not shown) [Example 6, 3-(2-chlorophenyl)-3-[2-(2,6-dimethyl-1-piperidinyl)ethyl]-2,5-pyrrolidinedione], the minimal effective dose in test [1] was determined as 1.3 mg/kg. Also, the pIC50 in test [2] was 6.33.

As for `CCCN(CCC)CCCC1(c2ccccc2Cl)CC(=O)NC1=O` (stereo not shown) [Example 14], in test [1], the minimal effective dose came out at 1 mg/kg. In test [2], this molecule had a negative logarithm of the IC50 (pIC50) of 5.44.

In test [1], `CCN(CC)CCC1(c2ccccc2)CC(=O)NC1=O` (stereo not shown) [Formula II (Prior Art), reference compound] registered a minimal effective dose of 2 mg/kg. In test [2], this molecule showed a pIC50 of 7.70.

`CC(C)N(CCC(C(N)=O)(c1ccccc1)c1ccccn1)C(C)C` (stereo not shown) [Norpace, reference compound]: in test [1], the “activity in the dog ventricular arrhythmia test” value (from here on “activity”) was “active”.

For `CCN(CC)CCNC(=O)c1ccc(N)cc1` [procainamide, reference compound], in test [1], the “activity” value is listed as “active”.

As to `C=C[C@H]1C[N@@]2CC[C@H]1C[C@@H]2[C@@H](O)c1ccnc2ccc(OC)cc12` [quinidine, reference compound], the “activity” value in test [1] is reported as “active”.
